Measurements from patent publication US20200038513A1, “MODULATORS OF FAK PROTEOLYSIS AND ASSOCIATED METHODS OF USE” (ARVINAS OPERATIONS, INC., priority 2018, published 2020).

System: MDA-MB-231 cells
Experiment: RPPA (reverse phase protein array)
Type: cell-based, human
Conditions: 1000nM
Description: RPPA analysis was performed by MD Anderson Cancer Center RPPA core facility.
Examination of the Molecular Signaling Events) and/or Downstream Pathways Responsible for the Migration and Invasion Effects Observed by Exemplary Compound Treatment. To pinpoint these observations to a molecular signaling event or specific downstream pathway, reverse phase protein array (RPPA) analysis was performed (Table 4).

CNC(=O)c1ccc(Nc2ncc(C(F)(F)F)c(NCc3nccnc3N(C)S(C)(=O)=O)n2)cc1 [Defactinib, defactinib, reference compound]
rel. Protein level, 4E-BP1: 115.6%
rel. Protein level, 4E-BP1_pS65: 91.8%
rel. Protein level, 14-3-3-beta: 98.4%
rel. Protein level, 14-3-3-zeta: 102.9%
rel. Protein level, 53BP1: 111.6%
rel. Protein level, A-Raf: 108.3%
rel. Protein level, ACC1: 95.9%
rel. Protein level, ACC_pS79: 102.5%
rel. Protein level, ADAR1: 111.8%
rel. Protein level, AMPK-a2_pS345: 98.1%
rel. Protein level, AMPKa: 105.6%
rel. Protein level, AMPKa_pT172: 101.3%
rel. Protein level, AR: 103.1%
rel. Protein level, ARID1A: 100.8%
rel. Protein level, ATM: 93.9%
rel. Protein level, ATM_pS1981: 99.4%
rel. Protein level, ATR_pS428: 93.7%
rel. Protein level, Akt: 99.2%
rel. Protein level, Akt_pS473: 79.3%
rel. Protein level, Akt_pT308: 97.2%
rel. Protein level, Annexin-I: 96.1%
rel. Protein level, Annexin-VII: 107.8%
rel. Protein level, Atg3: 98.1%
rel. Protein level, Atg7: 99.5%
rel. Protein level, Aurora-B: 91.9%
rel. Protein level, Axl: 76.0%
rel. Protein level, B7-H4: 102.6%
rel. Protein level, B-Raf: 104.8%
rel. Protein level, B-Raf_pS445: 108.8%
rel. Protein level, BAP1: 83.5%
rel. Protein level, BRD4: 108.7%
rel. Protein level, Bad_pS112: 103.3%
rel. Protein level, Bak: 103.1%
rel. Protein level, Bax: 106.4%
rel. Protein level, Bc1-xL: 100.4%
rel. Protein level, Bc12: 112.9%
rel. Protein level, Beclin_l: 99.2%
rel. Protein level, BiP-GRP78: 103.7%
rel. Protein level, Bid: 109.2%
rel. Protein level, Bim: 105.6%
rel. Protein level, C-Raf: 96.5%
rel. Protein level, C-Raf_pS338: 98.1%
rel. Protein level, CD4: 103.7%
rel. Protein level, CD20: 96.8%
rel. Protein level, CD29: 101.9%
rel. Protein level, CD31: 100.7%
rel. Protein level, CD44: 100.5%
rel. Protein level, CD45: 117.4%
rel. Protein level, CD49b: 105.5%
rel. Protein level, CD134: 100.5%
rel. Protein level, CDK1_pT14: 84.4%
rel. Protein level, COG3: 105.5%
rel. Protein level, Caspase-3: 108.3%
rel. Protein level, Caspase-7-cleaved-: 107.0%
rel. Protein level, Caspase-8: 97.2%
rel. Protein level, Caveolin-1: 135.0%
rel. Protein level, Chk2: 97.0%
rel. Protein level, Chk2_pT68: 106.0%
rel. Protein level, Chkl: 84.1%
rel. Protein level, Chkl_pS296: 98.2%
rel. Protein level, Claudin-7: 97.3%
rel. Protein level, Collagen-VI: 102.5%
rel. Protein level, Connexin-43: 86.5%
rel. Protein level, Cox2: 144.9%
rel. Protein level, Cox-IV: 101.8%
rel. Protein level, Creb: 103.7%
rel. Protein level, Cyclin-B1: 86.8%
rel. Protein level, Cyclin-D1: 100.5%
rel. Protein level, Cyclin-D3: 97.2%
rel. Protein level, Cyclin-E1: 101.8%
rel. Protein level, Cyclophilin-F: 85.5%
rel. Protein level, D-a-Tubulin: 98.2%
rel. Protein level, DJ1: 105.3%
rel. Protein level, DM-Histone-H3: 106.7%
rel. Protein level, DM-K9-Histone-H3: 108.9%
rel. Protein level, DUSP4: 135.6%
rel. Protein level, E2F1: 98.4%
rel. Protein level, E-Cadherin: 122.5%
rel. Protein level, EGFR: 93.7%
rel. Protein level, EGFR_pY1173: 100.8%
rel. Protein level, EMA: 102.2%
rel. Protein level, ENY2: 95.1%
rel. Protein level, ER: 99.6%
rel. Protein level, ER-a_pS118: 98.5%
rel. Protein level, ERCC1: 85.6%
rel. Protein level, ERCC5: 110.3%
rel. Protein level, Elk1_pS383: 97.3%
rel. Protein level, Ets-1: 90.6%
rel. Protein level, FAK: 116.1%
rel. Protein level, FAK_pY397: 93.5%
rel. Protein level, FASN: 98.1%
rel. Protein level, FOXM1: 90.3%
rel. Protein level, Fibronectin: 89.9%
rel. Protein level, FoxO3a: 104.9%
rel. Protein level, FoxO3a_pS318_S321: 99.0%
rel. Protein level, G6PD: 102.3%
rel. Protein level, GAPDH: 104.0%
rel. Protein level, GATA3: 91.1%
rel. Protein level, GATA-6: 99.4%
rel. Protein level, GCLM: 97.0%
rel. Protein level, GCN5L2: 94.5%
rel. Protein level, GSK-3a-b: 101.2%
rel. Protein level, GSK-3a-b_pS21_S9: 98.8%
rel. Protein level, Gab2: 94.6%
rel. Protein level, Glutamate-D1-2: 100.6%
rel. Protein level, Glutaminase: 100.6%
rel. Protein level, Granzyme-B: 102.7%
rel. Protein level, Gys: 107.0%
rel. Protein level, Gys_pS641: 106.2%
rel. Protein level, H2AX_pS140: 101.9%
rel. Protein level, HER2: 91.7%
rel. Protein level, HER2_pY1248: 101.5%
rel. Protein level, HER3: 98.5%
rel. Protein level, HER3_pY1289: 98.2%
rel. Protein level, HES1: 97.2%
rel. Protein level, HLA-DR-DP-DQ-DX: 98.9%
rel. Protein level, HSP27: 101.4%
rel. Protein level, HSP27_pS82: 114.2%
rel. Protein level, HSP70: 103.2%
rel. Protein level, Heregulin: 109.2%
rel. Protein level, Hexokinase-II: 98.0%
rel. Protein level, Hif-l-alpha: 116.1%
rel. Protein level, Histone-H3: 123.3%
rel. Protein level, IGF1R_pY1135_Y1136: 98.7%
rel. Protein level, IGFBP2: 90.9%
rel. Protein level, IGFRb: 99.7%
rel. Protein level, INPP4b: 99.6%
rel. Protein level, IR-b: 110.0%
rel. Protein level, IRF-1: 104.1%
rel. Protein level, IRS1: 96.1%
rel. Protein level, JNK2: 111.4%
rel. Protein level, JNK_pT183_Y185: 99.7%
rel. Protein level, Jagged1: 107.3%
rel. Protein level, Jak2: 104.3%
rel. Protein level, LC3A-B: 102.5%
rel. Protein level, LDHA: 121.2%
rel. Protein level, LRP6_pS1490: 109.2%
rel. Protein level, Lck: 101.9%
rel. Protein level, MAPK_pT202-Y204: 98.0%
rel. Protein level, MCT4: 119.5%
rel. Protein level, MDM2_pS166: 92.3%
rel. Protein level, MEK1: 110.2%
rel. Protein level, MEK1_p_S217-S221: 98.0%
rel. Protein level, MERIT40_pS29: 91.1%
rel. Protein level, MIF: 118.6%
rel. Protein level, MIG6: 133.9%
rel. Protein level, MMP2: 103.4%
rel. Protein level, MMP14-[EP1264Y]: 138.0%
rel. Protein level, MMP-14: 139.1%
rel. Protein level, MSH6: 99.2%
rel. Protein level, MSI2: 100.7%
rel. Protein level, Mcl-1: 101.9%
